According to the CheMixHub viscosity set:
Values joined by “and” are separate entries in the source; they are usually repeats but may differ in a detail not shown here. Equal values may be shown once.

Assay: xn = mol fraction of the nth substance listed

CC(C)[C@H](N)C(=O)O + O
101 kPa
Conditions	viscosity
293.15 K, x1 = 0.005375	1.137 mPa·s
293.15 K, x1 = 0.007154	1.185 mPa·s
293.15 K, x1 = 0.008925	1.236 mPa·s
298.15 K, x1 = 0.0001	0.9194 mPa·s and 0.9194 mPa·s
298.15 K, x1 = 0.0004318	0.9217 mPa·s and 0.9217 mPa·s
298.15 K, x1 = 0.00045	0.8955 mPa·s
298.15 K, x1 = 0.0006308	0.9343 mPa·s and 0.9343 mPa·s
298.15 K, x1 = 0.0009	0.9038 mPa·s
298.15 K, x1 = 0.001048	0.9493 mPa·s and 0.9493 mPa·s
298.15 K, x1 = 0.00135	0.9129 mPa·s
298.15 K, x1 = 0.001416	0.9595 mPa·s and 0.9595 mPa·s
298.15 K, x1 = 0.001787	0.9689 mPa·s and 0.9689 mPa·s
298.15 K, x1 = 0.0018	0.9222 mPa·s
298.15 K, x1 = 0.002245	0.9318 mPa·s
298.15 K, x1 = 0.002695	0.9413 mPa·s
298.15 K, x1 = 0.003711	0.9967 mPa·s and 0.9967 mPa·s
298.15 K, x1 = 0.005362	1.026 mPa·s and 1.026 mPa·s
298.15 K, x1 = 0.007185	1.05 mPa·s and 1.05 mPa·s
303.15 K, x1 = 0.0004	0.803 mPa·s
303.15 K, x1 = 0.00045	0.8023 mPa·s
303.15 K, x1 = 0.0007	0.808 mPa·s
303.15 K, x1 = 0.0009	0.8101 mPa·s
303.15 K, x1 = 0.001	0.814 mPa·s and 0.821 mPa·s
303.15 K, x1 = 0.00135	0.8187 mPa·s
303.15 K, x1 = 0.0018	0.8274 mPa·s
303.15 K, x1 = 0.002245	0.8364 mPa·s
303.15 K, x1 = 0.002695	0.8456 mPa·s
303.15 K, x1 = 0.003592	0.861 mPa·s
303.15 K, x1 = 0.005375	0.8951 mPa·s
303.15 K, x1 = 0.007154	0.9297 mPa·s
303.15 K, x1 = 0.008925	0.9658 mPa·s
308.15 K, x1 = 0.0001	0.7889 mPa·s and 0.7889 mPa·s
308.15 K, x1 = 0.0004318	0.7978 mPa·s and 0.7978 mPa·s
308.15 K, x1 = 0.00045	0.7239 mPa·s
308.15 K, x1 = 0.0006308	0.8045 mPa·s and 0.8045 mPa·s
308.15 K, x1 = 0.001048	0.8147 mPa·s and 0.8147 mPa·s
308.15 K, x1 = 0.00135	0.7396 mPa·s
308.15 K, x1 = 0.001416	0.8249 mPa·s and 0.8249 mPa·s
308.15 K, x1 = 0.001787	0.8389 mPa·s and 0.8389 mPa·s
308.15 K, x1 = 0.0018	0.7478 mPa·s
308.15 K, x1 = 0.002245	0.7561 mPa·s
308.15 K, x1 = 0.002695	0.7648 mPa·s
308.15 K, x1 = 0.003711	0.8751 mPa·s and 0.8751 mPa·s
308.15 K, x1 = 0.005362	0.9003 mPa·s and 0.9003 mPa·s
308.15 K, x1 = 0.007185	0.9207 mPa·s and 0.9207 mPa·s
313.15 K, x1 = 0.00045	0.6573 mPa·s
313.15 K, x1 = 0.0009	0.6645 mPa·s
313.15 K, x1 = 0.00135	0.6722 mPa·s
313.15 K, x1 = 0.0018	0.6799 mPa·s
313.15 K, x1 = 0.001804	0.6773 mPa·s
313.15 K, x1 = 0.002245	0.6878 mPa·s
313.15 K, x1 = 0.002695	0.696 mPa·s
313.15 K, x1 = 0.003592	0.7008 mPa·s
313.15 K, x1 = 0.005375	0.7269 mPa·s
313.15 K, x1 = 0.007154	0.752 mPa·s
318.15 K, x1 = 0.0001	0.6823 mPa·s and 0.6823 mPa·s
318.15 K, x1 = 0.0004318	0.6985 mPa·s and 0.6985 mPa·s
318.15 K, x1 = 0.00045	0.6017 mPa·s
318.15 K, x1 = 0.0006308	0.7009 mPa·s and 0.7009 mPa·s
318.15 K, x1 = 0.001048	0.7128 mPa·s and 0.7128 mPa·s
318.15 K, x1 = 0.00135	0.6159 mPa·s
318.15 K, x1 = 0.001416	0.7308 mPa·s and 0.7308 mPa·s
318.15 K, x1 = 0.001787	0.7418 mPa·s and 0.7418 mPa·s
318.15 K, x1 = 0.0018	0.6233 mPa·s
318.15 K, x1 = 0.002245	0.631 mPa·s
318.15 K, x1 = 0.002695	0.6386 mPa·s
318.15 K, x1 = 0.003711	0.7743 mPa·s and 0.7743 mPa·s
318.15 K, x1 = 0.005362	0.7995 mPa·s and 0.7995 mPa·s
318.15 K, x1 = 0.007185	0.8105 mPa·s and 0.8105 mPa·s
323.15 K, x1 = 0.001804	0.5656 mPa·s
323.15 K, x1 = 0.003592	0.5841 mPa·s
323.15 K, x1 = 0.008925	0.6454 mPa·s

C=CC#N + CS(C)=O
303.15 K, 101.3 kPa
Conditions	viscosity [mPa·s]
x1 = 0.102	1.529
x1 = 0.2051	1.288
x1 = 0.3025	1.096
x1 = 0.3994	0.9277
x1 = 0.5057	0.771
x1 = 0.6018	0.6508
x1 = 0.7045	0.5395
x1 = 0.8066	0.4478
x1 = 0.8999	0.3757

CC(CC(C)(C)C)CC(C)(C)C + Cc1cc(C)cc(C)c1
viscosity [mPa·s], 102 kPa
Conditions	x2 = 0.1002	x2 = 0.2001	x2 = 0.3009	x2 = 0.4006	x2 = 0.4977	x2 = 0.6	x2 = 0.7	x2 = 0.8001	x2 = 0.9001
293.15 K	1.22	1.13	1.05	0.972	0.908	0.848	0.805	0.761	0.727
303.15 K	1.03	0.96	0.893	0.837	0.789	0.738	0.697	0.658	0.63
313.15 K	0.892	0.831	0.782	0.732	0.691	0.65	0.614	0.58	0.555
323.15 K	0.781	0.738	0.693	0.649	0.613	0.578	0.546	0.517	0.494

CC(=O)CC(C)=O + CC(C)CCO
298.15 K, 101 kPa
Conditions	viscosity [mPa·s]
x1 = 0.1	2.622
x1 = 0.2	1.997
x1 = 0.3	1.558
x1 = 0.4	1.26
x1 = 0.5	1.063
x1 = 0.6	0.933
x1 = 0.7	0.844
x1 = 0.8	0.778
x1 = 0.9	0.729

CC(=O)CC(C)=O + CO
303.15 K, 101 kPa
Conditions	viscosity [mPa·s]
x1 = 0.0502	0.51
x1 = 0.1002	0.516
x1 = 0.3002	0.547
x1 = 0.5	0.579
x1 = 0.6983	0.611
x1 = 0.9004	0.645
x1 = 0.9511	0.655

C=CC#N + CO
viscosity [mPa·s], 101.33 kPa
Conditions	x1 = 0.1021	x1 = 0.2197	x1 = 0.302	x1 = 0.4017	x1 = 0.5035	x1 = 0.6614	x1 = 0.6991	x1 = 0.7966	x1 = 0.8985
298.15 K	0.483	0.435	0.41	0.388	0.367	0.351	0.346	0.34	0.338
303.15 K	0.453	0.41	0.387	0.367	0.354	0.337	0.329	0.325	0.322
308.15 K	0.428	0.387	0.366	0.348	0.331	0.318	0.315	0.311	0.309
